For 15 compounds, TGI results are on record in PubChem BioAssay (NCI).

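Method: 48-hour compound exposure of cells in 96-well plates, five concentrations, linear interpolation of endpoints. Definition used: TGI = concentration required for complete inhibition of growth.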 Where a SMILES comes first, the peptide text is derived from it. The star is where a group is joined. Fmoc = O=C(OCC1c2ccccc2-c2ccccc21)*; ONb = O=[N+]([O-])c1ccc(CO*)cc1; Boc = CC(C)(C)OC(=O)*

Holding throughout (assay): DTP human tumour cell line panel, 48 h
Assay [1] has as its system SW-620 colon.
Assay [2] deals with UACC-62 melanoma.
For assay [3], the system named is NCI-H226 lung.
In assay [4] the test system is NCI/ADR-RES ovarian.
For assay [5], the system named is ACHN renal.
Assay [6] has as its system SF-539 CNS.
Assay [7] has as its system NCI-H460 lung.
The test system of assay [8] is UO-31 renal.
Assay [9] deals with SNB-19 CNS.
Assay [10] relates to A498 renal.
Assay [11] relates to M14 melanoma.
Assay [12] has as its system OVCAR-5 ovarian.
Assay [13] relates to SN12C renal.
Assay [14] has as its system SF-268 CNS.
Assay [15] has as its system MCF7 breast.
The subject of assay [16] is DU-145 prostate.
For assay [17], the system named is U251 CNS.
The subject of assay [18] is T-47D breast.
The test system of assay [19] is NCI-H522 lung.
The test system of assay [20] is SR leukemia.

With `O=c1[nH]c(=O)n(C2CC(O)C(CO)O2)cc1C1=NC1` (stereo not given), the TGI in [1], in [2], in assay [3], in assay [4], in [5] and in assay [6] was greater than 100 µM in each case. In addition, the TGI in assay [7], in assay [8], in assay [9], in [10], in [11] and in [12] was greater than 100 µM each time. Also, the TGI in assay [13], in assay [14], in [15], in [16], in assay [17] and in assay [18] was greater than 100 µM each time.

For `O=c1[nH]c(Nc2cc(Cl)cc(Cl)c2)nc2nc[nH]c12`, the total growth inhibition concentration (TGI) in assay [1], in [2], in assay [3], in assay [4], in assay [5] and in assay [6] was greater than 75 µM throughout. The TGI in assay [7], in assay [8], in assay [9], in assay [11], in [12] and in assay [13] was greater than 75 µM in each case. Further, the concentration for total growth inhibition (TGI) in assay [14], in assay [15], in [16], in assay [17] and in assay [18] was greater than 75 µM throughout.

Turning to `CSc1c(C#N)c(N)nc2c(N=Nc3ccc(Cl)cc3)c(N)nn12`, the TGI in assay [1] turned out to be 4.49 µM; in [2], 8.77 µM; in assay [3] it was 37.9 µM; in assay [19], 22.5 µM; in [4] it was 39 µM; in [5] it was 12.4 µM. In addition, the total growth inhibition concentration (TGI) in assay [6] was 12.3 µM; in assay [7] it was greater than 45.6 µM; in [8], 4.42 µM; in assay [9], 40.7 µM; in assay [10] it was greater than 100 µM; in [11], 47.6 µM. Besides, the TGI in assay [12] came out at 39.6 µM; in assay [13] it was 8.1 µM; in assay [14] it was 5.7 µM; in assay [15], 4.71 µM; in [16] it was 5.7 µM; in [17] it was 11 µM. In assay [18], the concentration for total growth inhibition (TGI) came to 3.86 µM.

On to `CC1OC(O[C@H]2C3C=CO[C@@H](OC4OC(CO)C(O)C(O)C4O)C3[C@@]3(COC(=O)/C=C/c4ccc(O)cc4)O[C@@H]23)C(O)C(O)C1O` (stereo not given in full), for which the total growth inhibition concentration (TGI) in assay [1], in assay [2], in assay [3], in [19], in assay [4] and in assay [5] was greater than 100 µM throughout. The total growth inhibition concentration (TGI) in [7], in assay [8], in [9], in [10], in assay [11] and in assay [12] was greater than 100 µM each time. Also, the concentration for total growth inhibition (TGI) in [13], in assay [14], in [15], in assay [16], in assay [17] and in assay [18] was greater than 100 µM throughout.

With `CCSc1cc(=O)n(C)c(=O)n1C`, the concentration for total growth inhibition (TGI) in assay [1], in assay [2], in assay [3], in assay [19], in [4] and in assay [5] was greater than 100 µM throughout. For the same compound, the TGI in assay [6], in assay [7], in [8], in assay [9], in [10] and in assay [11] was greater than 100 µM each time. For the same compound, the TGI in [12], in [13], in assay [14], in [15], in [16] and in assay [17] was greater than 100 µM each time. Also, the concentration for total growth inhibition (TGI) in [18] is greater than 100 µM.

`COc1ccc(OC)c(CC2CCc3nc(N)nc(N)c3C2)c1` (stereo not given): the concentration for total growth inhibition (TGI) in assay [20] was greater than 69.8 µM; in [1] it was greater than 100 µM; in assay [2], 25.8 µM; in [3], greater than 49.4 µM; in assay [19], 25 µM; in assay [4], greater than 32.4 µM. Besides, the TGI in [5] was greater than 65.8 µM; in [6] it was 22.6 µM; in assay [7] it was greater than 46 µM; in [8], greater than 75.4 µM; in assay [9], greater than 81.8 µM; in [10], 62 µM. Moreover, the TGI in assay [11] was 24.3 µM; in assay [12], greater than 100 µM; in [13], greater than 100 µM; in assay [15] it was 32 µM; in [17], greater than 100 µM; in assay [18], greater than 68 µM.

Turning to `CC(C)CC(NC(=O)OC(C)(C)C)C(=O)NC(CCC(=O)OCc1ccc([N+](=O)[O-])cc1)C(=O)OCc1ccc([N+](=O)[O-])cc1` (stereo not drawn) (Boc-Leu-Glu(ONb)-ONb; configuration not given here), the concentration for total growth inhibition (TGI) was 37.1 µM in assay [20]; greater than 100 µM in assay [1]; 99.3 µM in [2]; greater than 100 µM in assay [4]; greater than 100 µM in [5]; 37.2 µM in assay [6]. In addition, the TGI in assay [7] was 56.1 µM; in assay [8] it was greater than 100 µM; in [9] it was greater than 100 µM; in assay [10], greater than 100 µM; in assay [11] it was 57.8 µM; in assay [12], greater than 100 µM. For the same compound, the total growth inhibition concentration (TGI) was greater than 100 µM in assay [13]; 39.3 µM in assay [14]; 44.9 µM in [16]; greater than 100 µM in [17]; greater than 100 µM in assay [18].

Turning to `N#CCCN(CCC#N)c1ccc(/C=C2\N=C(c3ccccc3)N(NC(N)=S)C2=O)cc1`, the TGI in assay [1], in [2], in [3], in assay [4], in [5] and in [6] was greater than 100 µM each time. In addition, the concentration for total growth inhibition (TGI) in assay [7], in assay [8], in assay [9], in assay [10], in [11] and in assay [12] was greater than 100 µM each time. Also, the concentration for total growth inhibition (TGI) in assay [13], in assay [14], in assay [15], in assay [16], in [17] and in assay [18] was greater than 100 µM in each case.

For the compound `C/C(=C/C(=O)Nn1c(Cc2ccccc2)n[nH]c1=O)C(=O)O`, the TGI in assay [1], in assay [2], in assay [3], in [19], in assay [4] and in [5] was greater than 100 µM each time. The TGI in assay [6], in [7], in [8], in [9], in [11] and in [12] was greater than 100 µM in each case. The concentration for total growth inhibition (TGI) in assay [13], in [14], in assay [15], in assay [16], in assay [17] and in [18] was greater than 100 µM in each case.

`CC(C)(C)OC(=O)NCCCCC(NC(=O)OCC1c2ccccc2-c2ccccc21)C(=O)N1CCCC1C(=O)NCC(N)=O` (stereo not drawn) (Fmoc-Lys(Boc)-Pro-Gly-NH2; configuration not given here): the concentration for total growth inhibition (TGI) in assay [20] was 49.5 µM; in assay [1], greater than 100 µM; in [2], greater than 100 µM; in [3], greater than 100 µM; in assay [4] it was greater than 100 µM; in assay [5], 34.6 µM. For the same compound, the TGI was greater than 100 µM in assay [6]; 37.9 µM in [7]; 29.1 µM in assay [8]; greater than 100 µM in assay [9]; greater than 100 µM in assay [11]; greater than 100 µM in assay [12]. In addition, the total growth inhibition concentration (TGI) in assay [13] was 30.2 µM; in assay [14], greater than 100 µM; in assay [15], greater than 100 µM; in assay [16], greater than 100 µM; in [17], 33.1 µM; in assay [18], greater than 100 µM.

As to `Cc1ccc(-n2[nH]nc(C#N)c2=O)cc1`, the TGI in assay [1], in assay [2], in assay [3], in [19], in [4] and in assay [5] was greater than 100 µM in each case. Also, the TGI in [7], in [8], in assay [9], in [11], in [12] and in assay [13] was greater than 100 µM throughout. In addition, the concentration for total growth inhibition (TGI) in assay [14], in [15], in assay [16], in assay [17] and in [18] was greater than 100 µM each time.

For the compound `COCOc1c(C(O[Si](C)(C)C(C)(C)C)c2cnc(Sc3ccccc3)n2C)ccc(OC)c1OC` (stereo not given), the TGI was determined as 7.74 µM in assay [20]; 3.8 µM in assay [1]; 3.91 µM in assay [2]; 4.14 µM in assay [3]; 3.58 µM in assay [19]; 2.75 µM in assay [4]. In addition, the TGI was 6.98 µM in assay [5]; 3.71 µM in assay [6]; 3.02 µM in assay [7]; 3.32 µM in assay [8]; 6.27 µM in [9]; greater than 100 µM in assay [12]. Moreover, the TGI was 3.31 µM in [13]; 3.34 µM in assay [14]; 3.8 µM in assay [15]; greater than 100 µM in assay [16]; 3.1 µM in [17]; greater than 100 µM in assay [18].

Take `O=C1CCC(=O)N1n1c(Cc2ccc(Cl)cc2)n[nH]c1=O`: the TGI in [1], in [2], in assay [3], in [19], in assay [4] and in assay [5] was greater than 100 µM throughout. Also, the concentration for total growth inhibition (TGI) in assay [6], in [7], in [8], in assay [9], in assay [10] and in assay [11] was greater than 100 µM in each case. Moreover, the TGI in assay [12], in assay [13], in [14], in assay [15], in [16] and in assay [17] was greater than 100 µM throughout. The TGI in assay [18] was greater than 100 µM.

Regarding `Cc1ccc(O)c(-c2cc(-c3cccc(Cl)c3)c(C#N)c(N)n2)c1`, the total growth inhibition concentration (TGI) in assay [20] was determined as 30.3 µM; in [1], 40.8 µM; in assay [2], 35.9 µM; in [3], 55.4 µM; in [19] it was 30 µM; in [4] it was 90.4 µM. The TGI in assay [5] was determined as 42.1 µM; in assay [6], 52 µM; in assay [7] it was 54 µM; in assay [8], 52.8 µM; in [11], 46.1 µM; in assay [12] it was 70.4 µM. Moreover, the concentration for total growth inhibition (TGI) in [13] was 47.6 µM; in assay [14], 51.3 µM; in assay [15], 42.7 µM; in [16], greater than 100 µM; in [17], 30 µM; in assay [18], greater than 100 µM.

On to `COC1(OC)CC(CO)(CNc2cc(Cl)nc(N)n2)C1`, for which the TGI in assay [20], in [1], in assay [2], in [3], in assay [19] and in assay [4] was greater than 100 µM throughout. Further, the TGI in assay [5], in assay [6], in assay [7], in assay [8], in assay [9] and in assay [12] was greater than 100 µM in each case. In addition, the TGI in assay [13], in assay [14], in assay [15], in assay [16], in assay [17] and in assay [18] was greater than 100 µM in each case.
